In patent US20210346342A1, “COMBINATION OF AN UROLITHIN WITH AN IMMUNOTHERAPY TREATMENT” (Amazentis SA, priority 2019, published 2021):

Assays:
[1] = system: AOM model of colorectal cancer; assay: AOM model of colorectal cancer: lesion count/size (H&E) and anti-CD3 immunostaining of colonic mucosa; format: in vivo, mouse
Experimental: • A model of sporadic tumourigenesis can be obtained applying repetitively azoxymethane (AOM), without dextran sodium sulphate, to female wild-type FVB mice. In particular, tumours are induced by six weekly intraperitoneal injections of AOM (10 mg/kg) in wild type animals. Mice are analysed 18-24 weeks later. Urolithin A is applied in the diet at a dose of 50 or 200 mg/kg mouse a day (mpk), or control lab diet one week before starting the 6 injections of AOM, during the 6 weeks of injections with AOM, and for approximately 20 weeks following these injections, for a total of ca. 27-30 weeks. At the end of the treatment period, mice are euthanized by cervical dislocation for the collection of intestinal tissues.

[2] = system: APTK organoid xenograft tumours; assay: APTK organoid subcutaneous xenograft tumour model: tumour volume, CD3 and cleaved caspase 3 staining; format: in vivo, mouse
Excerpt: • Colorectal cancer organoids (from here on also referred to as APTK organoids) are generated by the selective introduction of tumourigenic mutation in the gene APC (A), p53 (P), Tgf-beta1 (T) and K-ras (K). Since APTK organoids have been developed on a C57/BL6 genetic background, they can be transplanted to generate tumours in wild type BL6 mice with an intact immune system that allows to study the immune response towards the developing tumour. One week prior to subcutaneous transplantation, the mice are fed either a Urolithin A-containing or control diet. Tumour growth is assessed by calliper measurements. The resulting tumours are analysed histologically.

[3] = system: APTK organoid xenograft tumours; assay: APTK organoid model with depletion of CD8+ cytotoxic T cells by anti-CD8; format: in vivo, mouse; conditions: UA 200 mpk diet plus anti-CD8 150 μg i.p. every second day, FIG. 7
Experimental: For this model, C57/BL6 were maintained on a Urolithin A 200 mpk or control diet. One week after starting the dietary intervention, mice were transplanted subcutaneously with APTK organoids as described above. Starting at day 3, these mice received 5 intraperitoneal injections (150 μg every second day) of an anti-CD8 or isotype control antibody (BioXCell) to deplete CD8+ cytotoxic T cells. As in the previous experiments, tumour growth is measured by calliper measurements.

[4] = system: APTK organoid xenograft tumours; assay: APTK organoid model combined with anti-PD1 injections; format: in vivo, mouse; conditions: Urolithin A 200 mpk with isotype control antibody vs anti-PD1 200 μg i.p. every third day, FIG. 8
Experimental: • C57BL/6 mice are transplanted subcutaneously with APTK organoids as described in Example 2 and either, fed with a Urolithin A 200 mpk or control diet (initiated one week prior to subcutaneous injection) and receive 4 intraperitoneal injections (200 μg every third day, starting day 5) of a blocking anti-PD1 or isotype control antibody (BioXCell).

[5] = Pharmacokinetic profile of orally administered urolithin A; format: in vivo; conditions: 250 mg to 1000 mg urolithin A compared with 2000 mg
[6] = system: previously treated, unresectable melanoma; conditions: patients with previously treated; cited from earlier work
[7] = system: advanced, previously untreated non-small cell lung cancer; conditions: patients with advanced; cited from earlier work

| Molecule | number of lesions ([1]; UA 200 mpk in diet vs control diet, H&E of colonic tissue, FIG. 2) | CD3 positive cells in colonic mucosa ([1]; UA 200 mpk vs control, anti-CD3 immunostaining, FIG. 3) | size of lesions ([1]; UA treated animals vs control diet, FIG. 2) | tumour volume ([2]; UA 200 mpk diet vs control diet, calliper, FIG. 4) | CD3 positive cells at the invasive margin ([2]; UA 200 mpk vs control, FIG. 5) | CD3 positive cells inside the core of the tumours ([2]; UA 200 mpk vs control, FIG. 5) | cleaved Casp3 staining (marker of apoptosis) ([2]; UA 200 mpk vs control, FIG. 6) | anti-tumoural effect (tumour volume) when CD8+ cytotoxic T cells are abrogated [3] | tumour growth, Urolithin A alone versus anti-PD1 antibody treatment [4] | pharmacokinetic profile [5] | progression free survival [6] | response rate [6] [%] | response rate [7] [%] |
| --- | --- | --- | --- | --- | --- | --- | --- | --- | --- | --- | --- | --- | --- |
| O=c1oc2cc(O)ccc2c2ccc(O)cc12 [Urolithin A] | significantly decreases the number of lesions | tend to have more CD3 positive cells | appear to be of smaller size | significant lower tumour volume | less CD3 positive cells at the invasive margin | more CD3 positive cells inside the core of the tumours | significant increase of cleaved Casp3 staining | anti-tumoural effect of UA is lost | no difference was observed | surprisingly good pharmacokinetic profile | – | – | – |
| nivolumab | – | – | – | – | – | – | – | – | – | – | 9.7 months | 31 | 30 |
| pembrolizumab: humanized monoclonal IgG4 antibody directed against human cell surface receptor PD-1 | – | – | – | – | – | – | – | – | – | – | 50 weeks | 34 | 26 |
